biological target: MAPK14 (human) (UniProt Q16539); assay: Inhibition of MAPK14 Kinase Activity
Sequence (Q16539 whole entry, looked up): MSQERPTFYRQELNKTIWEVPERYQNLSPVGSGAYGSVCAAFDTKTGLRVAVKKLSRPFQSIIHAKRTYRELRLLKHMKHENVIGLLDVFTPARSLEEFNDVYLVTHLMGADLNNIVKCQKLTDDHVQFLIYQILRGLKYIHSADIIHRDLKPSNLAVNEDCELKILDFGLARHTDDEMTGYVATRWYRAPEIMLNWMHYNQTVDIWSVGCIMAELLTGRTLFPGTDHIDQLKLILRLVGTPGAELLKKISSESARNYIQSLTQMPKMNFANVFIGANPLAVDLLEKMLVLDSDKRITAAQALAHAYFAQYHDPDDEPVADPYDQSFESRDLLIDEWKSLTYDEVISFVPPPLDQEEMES

IC50, ≤ 10 µM:
CN1CC(Cc2ccccc2F)CN(c2c(Cl)cccc2Cl)C1=O (centres undefined)
O=C(NCc1ccccc1CC1CCC(=O)N(c2c(Cl)cccc2Cl)C1)NC1CCCCC1 (centres undefined)
Cc1cc(C#CCCO)cc(C)c1N1CC(Cc2ccc(F)cc2F)CCC1=O (centres undefined)
CC(=O)Nc1cnc(Cl)c(N2CC(Sc3ccc(F)cc3F)CCC2=O)c1Cl (centres undefined)
COc1ccccc1CC1CCC(=O)N(c2c(Cl)cccc2Cl)C1 (centres undefined)
O=C1NCC(Cc2ccc(F)cc2F)CN1c1c(Cl)cc(Br)cc1Cl (centres undefined)
Cc1cc(CCCCC=O)cc(C)c1N1CC(Cc2ccc(F)cc2F)CCC1=O (centres undefined)
CN1CCC(Nc2cc(Cl)c(N3CC(Cc4ccc(F)cc4F)CCC3=O)c(Cl)c2)CC1 (centres undefined)
O=C1CCC(Sc2ccc(F)cc2F)CN1C1C(Cl)CCC(O)C1Cl (centres undefined)
CN1CC(Cc2cc(F)cc(F)c2)CN(c2c(Cl)cccc2Cl)C1=O (centres undefined)
O=C1CCC(Oc2ccc(Cl)cc2Cl)CN1c1c(Cl)cncc1Cl (centres undefined)
O=C1CCC(Cc2ccc(F)cc2F)CN1c1ccccc1CCO (centres undefined)
O=C1CCC(Sc2ccccc2)CN1c1c(Cl)csc1Cl (centres undefined)
COc1ccccc1OC1CCC(=O)N(c2c(Cl)ccnc2Cl)C1 (centres undefined)
CCOC(=O)CCC(=O)Nc1cc(Cl)c(N2CC(Cc3ccc(F)cc3F)CCC2=O)c(Cl)c1 (centres undefined)
COC(=O)c1cc(C)c(N2CC(Cc3ccc(F)cc3F)CCC2=O)c(Cl)c1 (centres undefined)
O=C1NCC(Cc2ccc(F)cc2)CN1c1c(Cl)cccc1Cl (centres undefined)
Cc1ccc(CC2CN(c3c(Cl)cccc3Cl)C(=O)CS2)c(C)c1 (centres undefined)
O=C1[C@H](O)C[C@@H](Cc2ccc(F)cc2F)CN1c1c(Cl)cccc1Cl
O=C1CCC(Cc2ccc(Cl)cc2)CN1C1C(Cl)CCCC1Cl (centres undefined)
O=C1CCC(Sc2ccc3ccccc3c2)CN1c1c(Cl)ccnc1Cl (centres undefined)
O=C1CCC(Cc2ccc(F)cc2F)CN1c1cc(Cl)cc(Cl)c1 (centres undefined)
O=C1CCC(Cc2cccc3ccccc23)CN1c1c(Cl)ccnc1Cl (centres undefined)
O=C1CCC(Cc2ccc(F)cc2F)CN1c1c(Cl)cc(NCc2ccccn2)cc1Cl (centres undefined)
CNc1cc(Cl)c(N2CC(Oc3ccc(F)cc3F)CCC2=O)c(Cl)c1 (centres undefined)
Cc1cc(C#CCCCO)cc(C)c1N1CC(Cc2ccc(F)cc2F)CCC1=O (centres undefined)
O=C1CCC(Cc2ccc(F)cc2F)CN1c1c(Cl)cc(COC(c2ccccc2)(c2ccccc2)c2ccccc2)cc1Cl (centres undefined)
Cc1cc(C)cc(CC2CCC(=O)N(c3c(Cl)cncc3Cl)C2)c1 (centres undefined)
CNc1ccc(Cl)c(N2CC(Oc3ccc(F)cc3F)CCC2=O)c1Cl (centres undefined)
CN1CC(Cc2ccc(F)cc2F)CN(c2c(Cl)ccc(CO)c2Cl)C1=O (centres undefined)
Cc1ccc(OC2CCC(=O)N(c3c(Cl)cncc3Cl)C2)cc1 (centres undefined)
O=C1CCC(Sc2ccc(F)cc2F)CN1c1c(Cl)ncc(O)c1Cl (centres undefined)
Cc1cccc(C)c1N1CC(Cc2ccccc2OCC(=O)O)CCC1=O (centres undefined)
Cc1cccc(C)c1N1CC(Cc2ccccc2C(=O)O)CCC1=O (centres undefined)
NCc1ccccc1CC1CCC(=O)N(c2c(Cl)cccc2Cl)C1 (centres undefined)
O=C1CCC(Sc2ccccc2F)CN1c1c(Cl)cccc1Cl (centres undefined)
COC(=O)c1cc(C)c(N2C[C@@H](Cc3ccc(F)cc3F)C[C@@H](C)C2=O)c(C)c1
O=C1CCC(Cc2ccccc2)CN1c1ccccc1Cl (centres undefined)
O=C1CCC(Cc2ccc(F)cc2F)CN1c1c(Cl)cc(NCCN2CCCC2)cc1Cl (centres undefined)

Reference: the Kinase Knowledgebase extract (Sharma et al. 2016)
